Paper PMC8175851, “Effects of Genetic Polymorphism in CYP2D6, CYP2C19, and the Organic Cation Transporter OCT1 on Amitriptyline Pharmacokinetics in Healthy Volunteers and Depressive Disorder Patients” (Frontiers in Pharmacology, 2021)
Where two headings read alike, the source gives them in different places.

Columns and labels:
OCT1 = target: T1, OCT1 (Homo sapiens, UniProt O15245); test: in vitro
T1 construct: expressed in transfected cells
T1 sequence (O15245 1-554): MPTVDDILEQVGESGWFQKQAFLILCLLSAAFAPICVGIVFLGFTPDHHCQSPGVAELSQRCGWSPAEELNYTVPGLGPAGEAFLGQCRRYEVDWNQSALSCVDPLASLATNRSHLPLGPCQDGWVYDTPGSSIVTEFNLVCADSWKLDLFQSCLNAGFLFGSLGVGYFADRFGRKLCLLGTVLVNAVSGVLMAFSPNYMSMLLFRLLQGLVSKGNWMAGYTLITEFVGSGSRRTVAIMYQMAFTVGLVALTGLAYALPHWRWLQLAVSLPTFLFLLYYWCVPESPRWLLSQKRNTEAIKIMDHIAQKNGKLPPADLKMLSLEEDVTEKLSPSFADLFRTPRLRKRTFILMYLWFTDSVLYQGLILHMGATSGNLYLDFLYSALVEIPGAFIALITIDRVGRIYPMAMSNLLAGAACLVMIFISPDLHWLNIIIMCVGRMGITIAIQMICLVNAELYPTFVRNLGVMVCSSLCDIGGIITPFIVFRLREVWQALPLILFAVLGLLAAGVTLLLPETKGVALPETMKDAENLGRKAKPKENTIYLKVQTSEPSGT
Method: The inhibition of OCT1 by different psychotropic drugs was studied in transport experiments using HEK293 cells stably transfected with wild-type OCT1. The cells were generated by targeted chromosomal integration using the Flp-In system (Thermo Fisher Scientific, Darmstadt, Germany), as has been described in detail before ([Saadatmand et al., 2012]). The cells were cultured in Dulbecco’s Modified Eagle’s Medium supplemented with 10% foetal bovine serum, 100 U/ml penicillin, and 100 μg/ml streptomycin at 37°C, 5% CO2, and 95% relative humidity. Cells were kept in culture for no more than 30 passages. All buffers and reagents were purchased from Thermo Fisher Scientific (Darmstadt, Germany).
Approximately 48 h before the transport experiments, recombinant OCT1-expressing cells and empty vector-transfected control cells were seeded at a density of 4 × 10^5 cells/well in 12-well plates coated with poly-D-lysine and incubated as described above. On the day of the experiment, the cells were washed twice with prewarmed (37°C) Hank’s Balanced Salt Solution (HBSS). They were subsequently incubated for 3 min at 37°C with 1 µM of the fluorescent OCT1 substrate ASP^+ (4-(4-(dimethylamino)styryl)-N-methylpyridinium iodide) and increasing concentrations of the antidepressants in 500 µl HBSS. The reaction was stopped by adding 2 ml ice-cold HBSS. This was subsequently removed and the cells were lyzed in 500 µl radioimmunoprecipitation assay (RIPA) buffer for 10 min under shaking. The cell uptake of ASP^+ was quantified using a Tecan Ultra microplate reader (Tecan Group AG, Männedorf, Switzerland) at excitation wavelength 485 nm and emission wavelength 612 nm. The intracellular ASP^+ concentrations were normalised to the total amount of protein in the sample that was determined using the bicinchoninic acid assay ([Smith et al., 1985]). IC50 values were calculated using SigmaPlot 11 (Systat Software GmbH, Erkrath, Germany) and Prism 5 (GraphPad Software, San Diego, CA, United States).

[1] = Plasma concentrations per dose unit of AT and NT in depressive disorder patients (75 mg AT twice daily); assay type: in vivo, human; details: 12-hour-trough levels
Method: Briefly, 75 mg AT was administered twice daily at 12 h dosing intervals. Any drugs or dietary ingredients that might interfere with CYP2D6 or CYP2C19 metabolism were avoided whenever possible. Blood samples (12-hour-trough levels) were taken on days 0, 7, 14, 18, and 21, centrifuged, and stored at 4°C for genotyping (CYP2D6 and CYP2C19) and concentration analyses. The blood samples were subsequently stored at −20°C and later genotyped for OCT1.
The serum concentrations in depressive disorder patients were determined either by the Emit® immunoassay specific for AT and NT or a commercial high-performance liquid chromatography assay (Bio-Rad Laboratories GmbH, Feldkirchen, Germany), as described before ([Steimer et al., 2004]; [Steimer et al., 2005]).
The correlation between AT and NT plasma AUC (study in healthy volunteers) or mean plasma concentration per dose unit (study in depressive disorder patients) and OCT1, CYP2D6, and CYP2C19 genotypes were calculated using the Jonckheere-Terpstra non-parametric analysis, which takes into consideration the a priori ordering (or trend) in gene activities from zero to normal to ultra-rapid (for CYP2C19 and CYP2D6). To do so, the genotypes were categorized into 0, 1, or 2 active alleles for OCT1, into 0, 0.5, 1, 1.5, 2, 2.5, or 3 active alleles for CYP2D6, and into 0, 1, 1.5, 2, 2.5, or 3 active alleles for CYP2C19, depending on their known effects on transporter/enzyme activity. OCT1 alleles *2, *3, *4, *5 were classified as being zero active. […] A semi-quantitative gene dosage was calculated for CYP2D6, as has been described earlier ([Steimer et al., 2004]). For calculating a CYP2C19 activity score, CYP2C19*2 was regarded as zero active, CYP2C19*1 was classified as 1, and CYP2C19*17 as 1.5. Additional multiple linear regression analyses included sex, age, body mass index, and glomerular filtration rate.

[2] = OCT1 genotype *1 / *1 (n 27), mean ± standard deviation
[3] = OCT1 genotype *1 / *2 (n 14), mean ± standard deviation
[4] = OCT1 genotype *1 / *3 (n 2), mean ± standard deviation
[5] = OCT1 genotype *2 / *2 (n 3), mean ± standard deviation
[6] = OCT1 genotype *2 / *3 (n 2), mean ± standard deviation

inhibition at 3 min, 2.69 µM (OCT1; human, HEK293 cells stably transfected with wild-type OCT1) | IC50 (OCT1; read-out: IC50 (OCT1 inhibition)) | Compound | Mean plasma concentration per dose unit [1, 2] | Mean plasma concentration per dose unit [1, 3] | Mean plasma concentration per dose unit [1, 4] | Mean plasma concentration per dose unit ([1]; OCT1 genotype *1 / *4 (n 1)) | Mean plasma concentration per dose unit [1, 5] | Mean plasma concentration per dose unit [1, 6] | Mean plasma concentration per dose unit ([1]; OCT1 genotype *3 / *3 (n 1)) | IC50 (OCT1; inhibition of uptake of 1 µM ASP+, 3 min, HEK293 cells with wild-type OCT1, mean)
23% | 28.6 ± 18.9 µM | CN(C)CCC=C1c2ccccc2CCc2ccccc21 [Amitriptyline, amitriptyline] | 37.3 ± 15.9 | 44.0 ± 15.2 | 56.9 ± 36.0 | 38.7 | 47.6 ± 15.4 | 52.6 ± 31.9 | 53.9 | –
– | – | CNCCC=C1c2ccccc2CCc2ccccc21 [Nortriptyline, nortriptyline] | 34.0 ± 18.3 | 33.5 ± 14.6 | 34.6 ± 12.4 | 39.6 | 40.6 ± 26.7 | 28.0 ± 13.2 | 29.9 | 40.4 ± 16.2 µM
